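How tested: cells in 96-well plates exposed to compound for 48 hours at five concentrations. GI50: concentration for 50% inhibition of growth.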 Active and inactive are the calls of the source. Rule as the data show it: active = GI50 up to about 1.1 µM and inactive = higher.
Experiments:
Experiment in all cases: NCI anticancer screen, dose series, 48 h
[1] = system: NCI-H226
[2] = system: NCI-H23
[3] = system: HCC 2998
[4] = system: M14
[5] = system: SK-MEL-28
[6] = system: MDA-MB-435
[7] = system: K562
[8] = system: RPMI-8226
[9] = system: MOLT-4
[10] = system: LOX IMVI
[11] = system: HOP-62
[12] = system: EKVX
[13] = system: DU-145
[14] = system: Hs-578T
[15] = system: HOP-92
[16] = system: TK-10
[17] = system: RXF 393
[18] = system: NCI-H522
[19] = system: SR

SMILES | GI50 [1] | GI50 [2] | GI50 [3] | GI50 [4] | GI50 [5] | GI50 [6] | GI50 [7] | GI50 [8] | GI50 [9] | GI50 [10] | GI50 [11] | GI50 [12] | GI50 [13] | GI50 [14] | GI50 [15] | GI50 [16] | GI50 [17] | GI50 [18] | GI50 [19]
N#CCCN(CCNc1ccccc1)C(=O)Nc1ccc(NC(=O)N(CCC#N)CCNc2ccccc2)cc1 | > 73.5 µM (inactive) | > 68.4 µM (inactive) | > 100 µM (inactive) | > 100 µM (inactive) | > 94.8 µM (inactive) | > 100 µM (inactive) | > 100 µM (inactive) | > 100 µM (inactive) | > 100 µM (inactive) | 51.1 µM (inactive) | > 47 µM (inactive) | > 100 µM (inactive) | > 92.9 µM (inactive) | > 41.9 µM (inactive) | > 45.9 µM (inactive) | > 61.4 µM (inactive) | > 45.3 µM (inactive) | 21.1 µM (inactive) | 
COc1cc([C@@]23OC[C@@H]4[C@@H](OC[C@@H]42)c2cc4c(cc23)OCO4)cc(OC)c1OC | < 0.01 µM (active) | < 0.01 µM (active) | < 0.01 µM (active) | < 0.01 µM (active) | 23.5 µM (inactive) | < 0.01 µM (active) | < 0.0208 µM (active) |  | < 0.01 µM (active) | < 0.01 µM (active) | < 0.01 µM (active) |  | < 0.01 µM (active) | < 0.01 µM (active) |  |  | 0.873 µM (active) | < 0.01 µM (active) | < 0.01 µM (active)
CC1(C)[C@@H](Cn2nnc3c(N)ncnc32)CC[C@@]1(C)CO | > 100 µM (inactive) |  | 12.6 µM (inactive) | > 100 µM (inactive) | > 100 µM (inactive) | > 100 µM (inactive) | > 100 µM (inactive) | > 100 µM (inactive) | < 0.01 µM (active) | > 100 µM (inactive) | > 100 µM (inactive) | > 100 µM (inactive) | > 100 µM (inactive) | > 100 µM (inactive) | > 100 µM (inactive) | > 100 µM (inactive) | > 100 µM (inactive) |  | 
C=C1C(=O)O[C@H]2C(=O)[C@H](C)CCC[C@@](C)(O)/C=C\C[C@@]3(C)O[C@@H]3C[C@@H]12 | 82.2 µM (inactive) | 24.5 µM (inactive) |  | 11.3 µM (inactive) |  | 18.5 µM (inactive) |  | 17 µM (inactive) | < 0.01 µM (active) | 15.8 µM (inactive) |  |  | 14.5 µM (inactive) | 27 µM (inactive) | 10.3 µM (inactive) | 4.19 µM (inactive) |  | 2.88 µM (inactive) | 
Cc1ccc(/N=N/c2c(O)ccc3cc(S(=O)(=O)O)ccc23)cc1 | > 100 µM (inactive) | > 100 µM (inactive) |  | > 100 µM (inactive) | > 100 µM (inactive) | > 100 µM (inactive) | > 100 µM (inactive) | > 100 µM (inactive) | > 100 µM (inactive) | 18.2 µM (inactive) | > 100 µM (inactive) | 29.6 µM (inactive) | > 100 µM (inactive) | > 100 µM (inactive) | > 100 µM (inactive) | > 100 µM (inactive) | > 100 µM (inactive) | > 100 µM (inactive) | 
Cc1ccc(Cc2nn(C)c(=O)n2-n2cccc2)cc1 | > 100 µM (inactive) |  | > 100 µM (inactive) | > 100 µM (inactive) | > 100 µM (inactive) | > 100 µM (inactive) | > 100 µM (inactive) | > 100 µM (inactive) | > 100 µM (inactive) | > 100 µM (inactive) | > 100 µM (inactive) | > 100 µM (inactive) | > 100 µM (inactive) | > 100 µM (inactive) |  | > 100 µM (inactive) | > 100 µM (inactive) | > 100 µM (inactive) | > 100 µM (inactive)
CO/C(C)=N/CCC1=CCCCC1 |  | > 100 µM (inactive) | 52.5 µM (inactive) | > 100 µM (inactive) | > 100 µM (inactive) | > 100 µM (inactive) | 93.1 µM (inactive) | > 100 µM (inactive) | > 100 µM (inactive) |  | > 100 µM (inactive) | > 100 µM (inactive) | > 100 µM (inactive) | > 100 µM (inactive) | > 100 µM (inactive) | > 100 µM (inactive) | > 100 µM (inactive) | > 100 µM (inactive) | 0.104 µM (active)
S=C1N(c2ccc(Cl)cc2)C2=C(/N=N/c3ccccc3)C(=Nc3ccccc3S2)N1c1ccccn1 |  | 15 µM (inactive) | 17.4 µM (inactive) | 13.7 µM (inactive) | 15.4 µM (inactive) | 13.5 µM (inactive) |  | 17.7 µM (inactive) | 13.9 µM (inactive) | 10.4 µM (inactive) | 19.4 µM (inactive) | 12.2 µM (inactive) | 14.7 µM (inactive) | 16.4 µM (inactive) | 12.6 µM (inactive) | 14.8 µM (inactive) |  |  | 11.2 µM (inactive)
CC[N+](CC)(CC)/C(=N\S(=O)(=O)c1ccc(Cl)cc1)[N-]S(=O)(=O)c1cc(C)c(Cl)cc1S | 32.1 µM (inactive) | 85.9 µM (inactive) | 73.5 µM (inactive) | 39.3 µM (inactive) | > 100 µM (inactive) | > 100 µM (inactive) | 6.65 µM (inactive) | 47.3 µM (inactive) | 2.51 µM (inactive) | > 100 µM (inactive) | 52 µM (inactive) | > 100 µM (inactive) | 97.3 µM (inactive) | > 100 µM (inactive) | 24.9 µM (inactive) | 58.7 µM (inactive) | 78.2 µM (inactive) | 60.5 µM (inactive) | 
CCC(C#N)NCc1cccc(CNC(C#N)CC)c1 (centres undefined) | > 100 µM (inactive) | > 100 µM (inactive) | > 100 µM (inactive) | 17.6 µM (inactive) | > 100 µM (inactive) | > 100 µM (inactive) | > 100 µM (inactive) |  | > 100 µM (inactive) | > 100 µM (inactive) |  | > 100 µM (inactive) | > 100 µM (inactive) | 98.9 µM (inactive) | > 100 µM (inactive) | > 100 µM (inactive) |  | > 100 µM (inactive) | 
Cc1cc(O)c(C(C)C)cc1C(=S)Nc1ccc(Cl)cc1 |  | 5.93 µM (inactive) | 15.1 µM (inactive) |  | 13.9 µM (inactive) | 10.6 µM (inactive) | 4.35 µM (inactive) | 8.3 µM (inactive) | 3.4 µM (inactive) | 11.2 µM (inactive) | 18.5 µM (inactive) | 12.7 µM (inactive) | 17.7 µM (inactive) | 9.1 µM (inactive) |  |  |  | 5.61 µM (inactive) | 4.95 µM (inactive)
O=C(CC(=O)N1N=C(N2CCCCC2)CC1c1ccccc1)Nc1ccc(Cl)cc1 (centres undefined) | > 100 µM (inactive) | > 100 µM (inactive) | > 100 µM (inactive) | > 100 µM (inactive) | > 100 µM (inactive) | > 100 µM (inactive) |  |  | > 100 µM (inactive) | > 100 µM (inactive) | > 100 µM (inactive) | > 100 µM (inactive) | > 100 µM (inactive) | > 100 µM (inactive) | > 100 µM (inactive) | > 100 µM (inactive) |  | > 100 µM (inactive) | 
